# Reference: patent US9220746B2, “Compounds and methods for treating bone disorders and controlling weight” (The University of North Carolina at Chapel Hill, priority 2009, dated 2015)
# Where no end group is shown, it is not given here.
# Assays:
# [1] = test system: Igfbp2−/− COBs and BMSCs; assay: In vitro osteoblastogenesis of calvarial osteoblasts and bone marrow stromal cells (ALP, Alizarin Red staining); type: cell-based, mouse; conditions: 2 μg/ml, osteogenic media
# Experimental: FIG. 1. The heparin-binding domain of IGFBP2 enhances osteoblastogenesis in vitro. a. Von Kossa staining was performed using tibia from 8 weeks old Igfbp2^+/+ and Igfbp2^−/− male mouse. b. Calvarial osteoblasts (COBs) were harvested from day 7 old male Igfbp2^+/+ and Igfbp2^−/− male mouse, and treated with osteogenic media in the presence of 2.5% FCS. At day 7, alkaline phosphatase (ALP) staining was performed. c and d. COBs and Bone marrow stromal cells (BMSCs) from Igfbp2^−/− mouse were treated with osteogenic media with pegylated heparin-binding domain peptide (PEG-HBD) in the presence of 10% FCS. ALP staining (day 7) and Alizarin Red staining (day 14) were performed (c). RNA was isolated at day 14 from BMSCs and expression of ALP, osteocalcin (OC) and Runx2 was analyzed by real-time PCR. Figures shown represent at least 3 independent experiments (n=3). Statistical difference was analyzed by student's t test. *; p<0.05.
# FIG. 7. […] Igfbp2^−/− calvarial osteoblasts (COBs) were cultured with osteogenic media with PBS, control peptide (2 μg/ml) or heparin binding domain peptide (HBD-peptide) (2 μg/ml). Osteoblastogenesis was evaluated by Alizarin Red staining.
# Neonatal calvarial osteoblasts were collected from 7-10 day old mice as previously described^53. Briefly, calvariae were digested 5 times with collagenase P and Trypsin. Cells released from digests 2 through 5 were collected as primary calvarial osteoblasts, and maintained in DMEM supplemented with 10% FCS and non-essential amino acids. Osteoblastogenesis of primary calvarial osteoblasts was carried out by treating cells with 4 mM β-glycerophosphate and 50 μg/ml ascorbic acid in αMEM. Bone marrow stromal cells (BMSCs) were harvested from femurs and tibias of 8 weeks old mice as described previously^10. Osteoblastogenesis of BMSCs was induced by the treatment with osteogenic media consisting of αMEM containing 10% FCS, 8 mM β-glycerophosphate, and 50 μg/ml ascorbic acid.
# [2] = test system: metacarpals; assay: Metacarpal culture ex vivo (calcein incorporated area, length, width); type: cell-based, mouse; conditions: 10 days, IGFBP2 200 ng/ml, peptides 2 μg/ml, vs PBS; for calcein incorporated area of metacarpals: IGF-1 20 ng/ml
# Experimental: FIG. 2. The heparin binding domain of IGFBP2 enhances periosteal expansion of metacarpals ex vivo. Metacarpals were collected from day 1 male mouse, and treated with osteogenic media with IGFBP2 (200 ng/ml) or the heparin-binding domain peptide (HBD-peptide) (2 μg/ml) in the presence or absence of IGF-1 (20 ng/ml) for 10 days. Bones were labeled with calcein (500 ng/ml) and calcein incorporated area was visualized (a) and longitudinal length of calcein incorporated area was quantified (b). Alcian blue and Von Kossa double staining was performed (c) and length and width of metacarpals were quantified (d). Statistical difference was analyzed by ANOVA followed by Bonferroni post-hoc test. Figures shown represent at least 3 independent experiments. Values are expressed as the mean±SEM (n=3-4). ^a; <0.05 vs PBS, ^b; <0.01 vs PBS, ^c; <0.001 vs PBS, ^d; <0.01 vs HBD, ^e; <0.05 vs IGF-I, ^f; <0.05 vs HBD.
# Metacarpals were isolated from Igfbp2^−/− mice at 1-day old and incubated in DMEM containing 0.5% BSA, 50 μg/ml ascorbic acid and 1 mM β-glycerol phosphate for 10 days^54. Stimulants were added to culture media from day 1. At day 10, metacarpals were incubated in media containing calcein (500 ng/ml) for 2 hours for staining of calcium deposition, and images were obtained. Then, bones were fixed with 4% PFA, embedded in paraffin, and processed for Alcian blue and von Kossa double staining.
# [3] = test system: β-catenin; assay: Western blot analysis of β-catenin (cytosolic accumulation, pSer552); type: cell-based, mouse
# Experimental: FIG. 6. The heparin-binding domain of IGFBP-2 stimulates cytosolic accumulation and Ser552 phosphorylation of β-catenin by IGF-I. a, MC3T3-E1 cells were serum-starved over-night and treated with IGF-I at the indicated concentration for 6 hours. Expression of β-catenin and α-actin was analyzed by Western blot analysis with membrane and cytosolic fraction. b, Igfbp2^−/− calvarial osteoblasts (COBs) were serum-starved over-night with PBS or pegylated heparin-binding domain peptide (PEG-HBD) and then treated with IGF-I (100 ng/ml) for 6 hours. Expression of β-catenin was analyzed by Western blot analysis with cytosolic fraction and quantified by normalizing to α-actin (n=3). c, MC3T3-E1 cells were serum-starved over-night and treated with IGF-I (100 ng/ml) for 15 min. Expression of pSer552-β-catenin, β-catenin, pSer473-Akt, Akt and α-actin was analyzed by Western blot analysis with whole cell lysates. d, Igfbp2^−/− COBs were serum-starved over-night with PBS or PEG-HBD and then treated with IGF-I (100 ng/ml) for 15 min. Expression of pSer552-β-catenin was analyzed by Western blot analysis with whole cell lysates and quantified by normalizing to β-catenin (n=3). Figures shown represent at least 3 independent experiments. Values are expressed as the mean±SEM. Statistical difference was analyzed by Student's t-test. *; <0.001, **; <0.01, ^†; <0.05. […]
# [4] = test system: adherent macrophages; assay: Osteoclast differentiation, tartrate resistant acid phosphatase staining; type: cell-based, mouse; conditions: osteoclast differentiation
# Text: The method for osteoclast differentiation is as follows: Balb/c mice in which the IGFBP-2 gene had been deleted (see V. DeMambro et al, Endocrinology, 149(5): 2051-2061 (2007)) were anesthetized and sacrificed using cervical dislocation. The femurs from each mouse were dissected free of soft tissue and the bone marrow aspirated by needle puncture. Cells were removed sterile and resuspended in DMEM with 10% fetal calf serum. The cells were centrifuged at 700×g and the cell pellet resuspended in medium and plated in 24 well plates at a concentration of 5000 cells/cm^2. The plates that are used are low adherence plates that have no additives to facilitate cell adherence. Under these conditions macrophages will adhere while other cells will not. The media is supplemented with mCSF 20 ng/ml. After 3 days the cells are removed from the plate and the adherent macrophages are exposed to fresh media containing 10% FBS and mCSF. This is repeated again after 3 days and then after an additional 3 days cells are trypsinized and replated in fresh plates at 6×10^4 cells/cm. At this time RANK ligand, 50 ng/ml, is added, although in some experiments concentrations as low as 10 ng/ml were utilized. Medium is changed at 3 and 6 days and on day 7 cells are stained for tartrate resistant acid phosphatase, a marker of osteoclast differentiation. IGFBP-2 was added at concentrations between 50 ng/ml and 500 mcg/ml. The peptide was added at 20 or 200 ng/ml.
# For tartrate resistant acid phosphatase staining, a 1% solution is prepared and incubated with the cells for 30 min at room temperature. Cultures are then washed and cell number determined by manual counting.
# [5] = test system: cells derived from bone marrow aspirates or calvaria; assay: Osteoblast differentiation, alkaline phosphatase and von kossa stain; type: cell-based, mouse
# Experimental: For measurement of osteoblast differentiation, the cells are also derived from the same bone marrow aspirates. However in some experiments they were derived from calvaria obtained from newborn animals. Cells are plated in 6 well plates at […] in alpha MEM with 10% fetal bovine serum. Media was changed on day 1 and 3. At day 3 the cells received differentiation medium, which is alphaMEM containing 10% fetal calf serum, 8 mM glycerol phosphate and 50 ug/ml ascorbic acid. Media subsequently is changed every 2 days until termination of the experiment, generally at 18 days. In some experiments fetal calf serum concentration was lowered to either 5% or 2%. IGFBP-2 200 ng/ml was added to some cultures or the IGFBP-2 peptide at concentrations between 2 ng/ml and 2 mcg/ml. To determine osteoblast differentiation, the cells were fixed with 4% paraformaldehyde and then stained for alkaline phosphatase. The cells were then counterstained with von kossa stain to detect mineralization.
# [6] = test system: IGFBP-2−/− mice; assay: In vivo rescue of the bone phenotype in IGFBP-2−/− mice (micro CT); design: species or system mouse
# Experimental: IGFBP-2−/− mice have reduced bone mineral density, reduced cortical and trabecular thickness and reduced bone turnover, both formation and resorption. To determine if the 13 amino acid peptide was active systemically, a pegylated preparation was prepared in order to extend halflife. This preparation was then injected into the mice. Mice between the ages of 16 and 20 weeks were utilized. These mice are known to have a major bone phenotype. The peptide was injected at a dose of 50 mcg of peptide plus conjugate, that is the total molecular weight of PEG plus the peptide, which is approximately 23,000 molecular weight was injected intraperitoneally five days per week for three weeks. Six mice were injected in each group. The major measure of bone density is the bone volume over total volume as calculated by micro CT analysis. This measures the amount of total bone within a given space. Control animals receive PBS injections.
# [7] = test system: PTEN; assay: Western blot analysis of PTEN expression; type: cell-based, mouse; conditions: primary calvarial osteoblasts, overnight treatment
# Experimental: FIG. 5. The heparin-binding domain of IGFBP2 suppresses PTEN expression. a and b, Igfbp2^−/− calvarial osteoblasts (COBs) were isolated, and treated with PBS, IGFBP-2 or pegylated heparin-binding domain peptide (PEG-HBD) in MEMα containing 0.1% BSA overnight. Whole cell lysate was collected and expression of PTEN and α-actin was analyzed by Western blot analysis. Expression levels of PTEN were quantified by normalizing to the expression levels of α-actin. c and d. COBs pre-incubated with PBS, IGFBP-2 or PEG-HBD overnight were treated with IGF-I (100 ng/ml) for 15 minutes. Whole cell lysate was collected and expression of pSer473-Akt and Akt was analyzed by Western blot analysis. Expression levels of pSer473-Akt were quantified by normalizing to the expression levels of Akt. Figures shown represent at least 3 independent experiments. Values are expressed as the mean±SEM (n=3-4). Statistical difference was analyzed by Student's t-test. *; <0.001, **; <0.01, ^†; <0.05.
# FIG. 9. […] Igfbp2^+/+ calvarial osteoblasts were treated with PBS, control peptide, or heparin-binding domain peptide (HBD-peptide) overnight, and whole cell lysate was collected. PTEN expression was analyzed using western blot analysis (a), and quantitative analysis was performed (b). Values were expressed as the mean±SEM (n=3). Statistical significance was analyzed by ANOVA followed by Bonferroni post-hoc test. ^a; p<0.01 vs. PBS, ^b; p<0.01 vs. control peptide.
# To prepare whole cell lysates, cells were solubilized in RIPA buffer^55. For cytosolic fraction, cells were solubilized with hypotonic buffer containing protease and phosphatase inhibitors (10 mM Tris, 0.2 mM MgCl2, pH 7.4) and kept on ice for 10 min. Cell lysates were mixed with sucrose buffer (final concentration; 25 mM Sucrose, 0.1 mM EDTA) and centrifuged at 20,000×g for 1 hour. Supernatant was used as cytosolic fraction. To prepare the membrane fraction, cells were solubilized with PBS containing protease and phosphatase inhibitors. The lysates were frozen at −80° C. for 1 h and thawed at room temperature. After three cycles, they were centrifuged at 13,000×g for 25 min. The pellet was suspended with membrane protein isolation buffer (20 mM Tris-HCl; 150 mM NaCl; 1 mM EDTA; 1 mM EGTA; and 1% Triton X-100, pH 7.5) containing protease and phosphatase inhibitors. Protein concentration was assessed by BCA protein assay kit (Thermo Scientific) and equal amounts of sample were separated by SDS-PAGE and transferred electrophoretically to nitrocellulose membranes. Membranes were blocked in 5% BSA in Tris-buffered saline. […]
# [8] = 50 mcg i.p. five days per week for three weeks
substance,measurement,setting,value
"RKGFYKRKQCKPSRGKRK (IGFBP-5 heparin binding domain-containing peptide sequence) [HBD-BP5, reference compound]",mineralization of Igfbp2−/− COBs (Alizarin Red) compared to PBS,[1],did not show any enhancement of mineralization
same,calcein incorporated area of metacarpals,[2],did not have any effect
same,width (and length) of metacarpals,[2],did not have any effect
IGF-I: insulin-like growth factor-I,calcein incorporated area of metacarpals,[2],stimulated expansion of calcein incorporated area
same,Ser552 phosphorylation of β-catenin,"[3]; IGF-I 100 ng/ml 15 min, MC3T3-E1 cells (IGF-I alone) or Igfbp2−/− COBs pre-treated with PEG-HBD",stimulated β-catenin phosphorylation on Ser552
same,cytosolic accumulation of β-catenin,"[3]; IGF-I 6 hours, MC3T3-E1 cells (IGF-I alone) or Igfbp2−/− COBs pre-treated with PEG-HBD vs PBS",enhanced cytosolic accumulation of β-catenin
"pegylated 13 amino acid peptide: peptide of SEQ ID NO: 1 N-terminally pegylated with methoxyPEG propinaldehyde molecular weight 20 kDa, 1 PEG per peptide ({methoxyPEG 20 kDa}-KHHLGLEEPKKLR)",biologic activity compared to the nonpegylated peptide,[4],equal biologic activity
same,biologic activity compared to the nonpegylated peptide,[5],equal biologic activity
same,PTEN in bones (biochemical analysis),[6]; [8],downregulated
same,cortical thickness,[6]; [8],substantially increased
same,rescue of bone phenotype relative to normal,[6]; [8],≤ 70%
same,BV/TV (bone volume over total volume),"[6]; 50 mcg peptide plus conjugate i.p. five days per week for three weeks, normal 0.22, gene deletion 0.12",0.18
"AALSLEEPAALAP (Synthetic control peptide) [control peptide for HBD-peptide, reference compound]",mineralization of Igfbp2−/− COBs (Alizarin Red) compared to PBS,[1],did not enhance mineralization
same,calcein incorporated area of metacarpals,[2],no effect
same,width (and length) of metacarpals,[2],comparable to the metacarpals treated with PBS
same,PTEN expression,[7],no effect on PTEN expression
